Tests used:
Type in all cases: cell-based, human
MG-63 cells [1] = assay: Production of alkaline phosphatase (ALP) by MG-63 cells with Sr(NO3)2 added to the wells
Experimental: MG-63 is a human cell line (ATCC No CRL-1427, U.S.) conventionally used in the art for in vitro studies of osteoblasts.
In this study, MG-63 cells were obtained from frozen cells in second passage and further cultured in Dulbecco's modified Eagle's medium (DMEM) containing FCS 5%, PEST 1%, Gibco, UK) in 37° C. in an atmosphere of 5% CO2 and 100% humidity. When the cells reached confluence they were subcultured by the use of 0.05% Trypsin-EDTA (Gibco, UK) until the amount of cells were obtained.
In order to study the effect of strontium on the production of alkaline phosphatase (ALP), MG-63 cells prepared in reference example 1 were subcultured into 24 well plates at a plating density of 10 000 cells/cm^2, in total 20 000 cells/well. Sterile filtered Sr(NO3)2 at final concentrations of 10 mM, 5 mM, 3 mM, and 1 mM respectively (pH 5.2) were added to the respective wells of the plate. Untreated cells were used as controls. Cells were cultured for 3, 7 and 14 days at a temperature of 37° C. in an atmosphere of 5% CO2 and 100% humidity.
(§1) At harvest, the cell culture medium was analysed with respect to the ALP content. The intracellular ALP was measured by cell lysis according to the instructions of the manufacturer (SenzoLyte™ pNPP Alkaline Phosphatase Assay Kit Colorimetric BioSite, Sweden). The absorption was set at 405 nm by an automatic plate reader (Vmax, Molecular Device, UK). By comparing the optical density of the samples with the standard provided with the kit, the ALP concentrations could be determined. The instructions from the manufacturer were followed (BioSite, Sweden).

MG-63 cells [2] = assay: MG-63 proliferation on reference surfaces with strontium (NucleoCounter); conditions: 0.5 mM strontium on reference surface 1, 7 days, compared to unstimulated reference surfaces 1 and 2
Experimental: Sterilized (β-radiation) Ti coins with reference surfaces 1 and 2, respectively were placed in 24 well plates. MG-63 cells were subcultured onto the coins in the 24 well plates at a plating density of 10 000 cells/cm^2, in total 20 000 cells/well. Sterile filtered Sr(NO3)2 at final concentrations of 5 mM and 0.5 mM (pH 5.2) was added to the respective wells. Untreated cells were used as controls. Cells were cultured for 7 days at a temperature of 37° C. in an atmosphere of 5% CO2 and 100% humidity.
The total number of cells in each well (×10^5) after each time period was determined by the NucleoCassette method by the NucleoCounter (ChemoMetec A/S Denmark).
The number of cells was investigated by lysis of the cells in “Reagent A” having a pH of 1.25 following stabilization by “Reagent B”. In the NucleoCassette, propidium iodide was incorporated which targets the amount of released DNA. The cassette was placed in the NucleoCounter and the amount of measured fluorochrome corresponded to the amount of DNA. The instructions from the manufacturer were followed (Chemometec A/S, Denmark).

MG-63 cells [3] = assay: ALP production on reference surfaces; conditions: 0.5 mM strontium on reference surface 1, after 7 days of cell culture
Experimental: as §1
The production of ALP on reference surface 1 comprising a concentration of 0.5 mM strontium was compared with unstimulated reference surfaces 1 and 2.

For `O=[N+]([O-])[O-].O=[N+]([O-])[O-].[Sr+2]` [strontium, Sr(NO3)2], which “amount of ALP, rank among concentrations” value (MG-63 cells [1]; 3 mM strontium, after 14 days of culturing) is on record?
Its value is “highest amount of ALP”.

And the “production of ALP compared to control” value (MG-63 cells [1]; after 7 days of culture)?
Its value is “small increase”.

And the “ALP levels compared to control” value (MG-63 cells [1]; after 14 days, especially at Sr concentrations 1 mM and 3 mM)?
Its value is “remarkably increased”.

And the “production of ALP compared to control (unstimulated cells)” value (MG-63 cells [1]; initially (3 days), all strontium concentrations (1, 3, 5, 10 mM), polystyrene)?
Its value is “initially slow”.

What about the “MG-63 cell proliferation, rank” value (MG-63 cells [2]) of the same compound?
The value was “highest MG-63 cell proliferation”.

And the “production of ALP compared with unstimulated reference surfaces 1 and 2” value (MG-63 cells [3])?
The value was “increased production of ALP”.

— patent US9744263B2, “Bone tissue implant comprising strontium ions” (ASTRA TECH AB, priority 2007, dated 2017)
